Results published in US8575188B2 (priority 2009, dated 2013).
Read-outs that look alike come from different tables or passages of the source.

Columns and labels:
[1] = system: human non small cell lung cancer cell line H460; experiment: Antiproliferation (cytotoxicity) assay, 72 hrs under air, Alamar Blue; type: cell-based; conditions: read-out: IC50
[2] = system: Messa ovarian carcinoma cell line; experiment: Efflux pump drug resistance, antiproliferation assay, parent line; type: cell-based; conditions: Homo sapiens, MES-SA, air
Experimental: […] Cells were treated with test compounds at various concentrations under air for 72 hrs, and then cell viability and proliferation were assessed by Alamar Blue staining.
(§1) Cellular drug resistance was determined using the antiproliferation assay described above.

[3] = system: DX5, which over expresses the MDR 1 efflux pump; experiment: Efflux pump drug resistance, antiproliferation assay, MDR 1 over expressing line; type: cell-based; conditions: air
Experimental: (§2) The compounds were screened for cytotoxicity using human non small cell lung cancer cell line H460. […]
as §1

[4] = system: H69 small cell lung cancer line; experiment: Efflux pump drug resistance, antiproliferation assay, parent line; type: cell-based; conditions: air
Experimental: as §2, §1

pcDNA = experiment: as above; type: cell-based; conditions: air
Experimental: as §2, §1

[5] = system: MRP1 over expressing H69AR line; experiment: Efflux pump drug resistance, antiproliferation assay, MRP1 over expressing line; type: cell-based; conditions: Homo sapiens, air
Experimental: as §2, §1

[6] = system: BCRP, which over expressed the breast cancer resistance protein; experiment: Efflux pump drug resistance, antiproliferation assay, BCRP over expressing line; conditions: for 3d BCRP/pcDNA: 3 days
Experimental: as §2, §1

[7] = Bone marrow progenitor cell clonogenic assay (CFU-GM), mouse; conditions: mouse
Experimental: (§3) A clonogenic assay was performed using bone marrow progenitor cells derived from the blood of mice and humans.

[8] = system: bone marrow progenitor cells; experiment: as above; conditions: read-out: Mouse CFU-GM (IC50 nM) THLD
Experimental: as §3

[9] = Bone marrow progenitor cell clonogenic assay (CFU-GM), human; conditions: human
Experimental: as §3

[10] = system: bone marrow progenitor cells; experiment: as above; conditions: read-out: Human CFU-GM (IC50 nM) THLD
Experimental: as §3

H46O cells = experiment: Selective hypoxic activation of 14-nitro prodrugs in cell culture; type: cell-based, human; conditions: TH1332 at 5 micromolar, 24 hour
Experimental: H46O cells were grown to a confluent monolayer and then the 14-nitro TH1332 prodrug was added to the media at 5 micromolar concentration. Incubations were done for 24 hour either under air or nitrogen (hypoxia), media and cells were recovered, sonicated and soluble extracts were isolated by acetonitrile precipitation of proteins. The level of amino TH1338 active cytotoxin were quantitated by liquid chromotagraphy mass spectra analysis. The equivalent of 70 nanomolar TH1338 was produced under hypoxia with undetectable levels being produced under air (less than 5 nanomolar).
The analogous experiment was preformed using 1 micromolar concentration of the 14-nitro derivative TH1431. After 24 hr, 180 nanomolar of the 14 amino TH1499 was produced under nitrogen with undetectable levels produced under air (less than 5 nanomolar).

human colon cancer HT-29 = experiment: Xenograft model, subcutaneous, tumor growth inhibition and body weight loss; conditions: for TGI (%): HT29, PO, QD × 5/wk; for Max. BWL (%): mouse, in vivo, po
Experimental: (§4) The first three models were produced by subcutaneous implantation of the appropriate number of cells into the flank of the animals. When tumor size was approximately 150 mm^3, animals were randomized into groups of 10 mice each for dosing. One arm was dosed with only vehicle and the results used for the efficacy calculations. […] TGI=(1−T/C) %. T/C ratio was calculated as T/C=(Tn−Ti)/(Cn−Ci), where Tn is tumor volume in treatment group on Day n, and Ti is the initial tumor volume in the treatment group. Cn is the tumor volume of the vehicle group on the last day of measurement. Ci is the initial tumor volume in the vehicle control group. Day n is the last measurement taken when all the animals in the vehicle group were not yet euthanized. Animals were euthanized when tumor volumes grew larger than 2000 mm^3.

[11] = system: human non small cell lung cancer H-460; experiment: as above; conditions: for TGI (%): H460, PO, QD × 5/wk, 2 weeks; for Max. BWL (%): mouse, in vivo, po
Experimental: as §4

[12] = system: human prostate cancer PC-3; experiment: as above
Experimental: as §4

[13] = Brain penetration, AUC in brain versus AUC plasma; conditions: mouse
Experimental: Certain compounds of the invention were assessed for brain penetration by comparing the AUC for plasma exposure versus the AUC in brain.

[14] = In vivo pharmacokinetics, oral gavage; conditions: CD, mouse, in vivo, po; for AUC / Cmax: 50 mg/kg
Experimental: The data normalized to a 50 mg/kg dose are shown below (compounds were dosed at either 25 or 50 mg/kg).

[15] = system: IGROV1 human ovarian cancer cells; experiment: Xenograft model of metastatic ovarian cancer (i.p.), survival; conditions: IGROV1 i.p., median survival treated / vehicle times 100, PO, QD × 5/wk, 4 weeks
Experimental: One arm was dosed with only vehicle and the results used for the efficacy calculations. […] A xenograft model of metastatic ovarian cancer was set up by the intraperitoneal (i.p) injection of 3×10^6 IGROV1 human ovarian cancer cells in nude mice. Mice were evaluated twice a week for morbidity and mortality. Kaplan-Meier survival curves were plotted.

[16] = system: human prostate cancer cell line PC-3; experiment: Antiproliferation assay, 72 hrs under air, Alamar Blue; type: cell-based; conditions: read-out: PC3 IC50
[17] = system: human colon cancer cell line HT-29; experiment: as above; type: cell-based
[18] = system: human melanoma cell line SKMEL2; experiment: as above; type: cell-based
[19] = system: human melanoma cell line SKMEL-28; experiment: as above; type: cell-based
[20] = system: human melanoma cell line A375; experiment: as above; type: cell-based
[21] = system: human melanoma cell line MAMLE-3M; experiment: as above; type: cell-based
[22] = system: human prostate cancer cell line DU145; experiment: as above; type: cell-based
[23] = system: human prostate cancer cell line LNCap; experiment: as above; type: cell-based
[24] = system: human ovarian cancer cell line IGROV-1; experiment: as above; type: cell-based
[25] = system: mouse melanoma cell line B-16-F10; experiment: as above; type: cell-based; conditions: B16-F10
[26] = Homo sapiens, NCI-H460, H460, inhibition of proliferation, 72 hrs under air
[27] = 72 h, 3 days, read-out: Air 3d MESSA prol. IC50
[28] = MDR1, 72 h, 3 days, read-out: Air 3d DX5 prol. IC50
[29] = 72 h, 3 days, read-out: Air 3d pcDNA prol. IC50
[30] = 72 h, read-out: Air 3d BCRP prol. IC50 nM, air, 3 days
[31] = ratio of IC50s, BCRP over expressing versus parent line
[32] = Homo sapiens, HT-29, read-out: HT29 IC50
[33] = Homo sapiens, SK-MEL-2, read-out: SKMEL-2 IC50
[34] = 72 h, 3 days, read-out: Air 3d H69 prol. IC50
[35] = 72 h, 3 days, read-out: Air 3d H69ar (MRP1) prol. IC50

Row | SMILES | IC50 [1, 26] | IC50 [2, 27] | IC50 [3, 28] | IC50 (pcDNA; [29]) | IC50 [6, 30] | 3d BCRP/pcDNA [6, 31] | IC90 [7] | IC50 ([8]; Mus musculus, CFU-GM) | IC90 [9] | IC50 ([10]; Homo sapiens, CFU-GM) | Kp [13] | half-life [14] | AUC [14] | Cmax [14] | IC50 [25] | IC50 ([16]; Homo sapiens) | IC50 [17, 32] | IC50 [18, 33] | IC50 ([19]; Homo sapiens, SK-MEL-28) | IC50 ([20]; Homo sapiens, A-375) | other results
1 | CCc1c2c(nc3ccccc13)-c1c([N+](=O)[O-])c3c(c(=O)n1C2)COC(=O)[C@]3(O)CC [TH1332] | 66 nM | 5300 nM | 6300 nM | 1800 nM | 2300 nM | 1.3 | > 10000 nM | > 10000 nM | > 100 nM | > 1000 nM | 0.18 | 6.25 h | 1820 ng·h/mL | 380 ng/mL |  |  |  |  |  |  | IC50 ([2]; 120 h, 5 days, read-out: Air 5d MESSA prol. IC50): 2330 nM; IC50 ([3]; MDR1, 120 h, 5 days, read-out: Air 5d DX5 prol. IC50): 2740 nM; IC50 ([4]; 120 h, 5 days, read-out: Air 5d H69 prol. IC50): 4220 nM; IC50 (pcDNA; 120 h, 5 days, read-out: Air 5d pcDNA prol. IC50): 24 nM; IC50 ([5]; 120 h, 5 days, read-out: Air 5d H69ar (MRP1) prol. IC50): 8710 nM; IC50 ([6]; 120 h, read-out: Air 5d BCRP prol. IC50 nM, air, 5 days): 21 nM; 5d BCRP/pcDNA ([6]; ratio of IC50s, BCRP over expressing versus parent line, 5 days): 0.875; TH1338 produced under air (H46O cells; air, undetectable levels): less than 5 nanomolar; TH1338 produced under hypoxia (H46O cells; nitrogen (hypoxia), LC-MS): 70 nM; TGI (%) (human colon cancer HT-29; 4 weeks, 150 mg/Kg): 62.8%; Max. BWL (%) (human colon cancer HT-29; 150 mg/kg): 0%; TGI (%) ([11]; 150 mg/Kg): 91.4%; Max. BWL (%) ([11]; 150 mg/kg): 11.4%; TGI (%) ([12]; PC3, PO, QD × 5/wk, 2 weeks, 150 mg/Kg): 103%; Max. BWL (%) ([12]; mouse, in vivo, po, 150 mg/kg): 1.8%; T/C ([15]; 150 mg/Kg): 159
2 | CCc1c2c(nc3ccc(O)cc13)-c1cc3c(c(=O)n1C2)COC(=O)[C@]3(O)CC [SN-38, reference compound] |  |  |  |  |  |  |  |  |  |  |  |  |  |  |  |  |  |  |  |  | IC50 [1]: 54 nM; IC50 [16]: 4 nM; IC50 ([17]; read-out: HT29 IC50): 224 nM; IC50 ([18]; read-out: SKMEL-2 IC50): 100 nM; IC50 [19]: 10000 nM; IC50 [20]: 4 nM; IC50 [21]: 200 nM; IC50 [22]: 4 nM; IC50 [23]: 9 nM; IC50 [24]: 30 nM; ratio BCRP over expressing line versus the parent cell line ([6]; not told): > 220; IC50 [8]: 110 nM; IC50 [10]: 1.3 nM
3 | CC[C@@]1(O)C(=O)OCc2c1c(N)c1n(c2=O)Cc2c-1nc1ccccc1c2C [TH1339] | 1.8 nM | 8.5 nM | 6.7 nM | 2.3 nM | 2.1 nM | 0.913 | 2200 nM | 560 nM | 100 nM | 10 nM |  |  | 405 ng·h/mL | 378 ng/mL | 690 nM | 9 nM | 69 nM | 50 nM | > 10000 nM | 3 nM | IC50 ([21]; Homo sapiens): 220 nM; IC50 ([22]; Homo sapiens, DU-145): 2.5 nM; IC50 ([23]; Homo sapiens, LNCaP): 23 nM; IC50 ([24]; Homo sapiens, IGROV-1): 10 nM; IC50 [4, 34]: 13 nM; IC50 [5, 35]: 28 nM; TGI (%) (human colon cancer HT-29; 2 weeks, 30 mg/Kg): 56.5%; Max. BWL (%) (human colon cancer HT-29; 30 mg/kg): 3%; TGI (%) ([11]; 15 mg/Kg): 46.1%; Max. BWL (%) ([11]; 15 mg/kg): 0%; T/C ([15]; 20 mg/Kg): 280
4 | CC[C@@]1(O)C(=O)OCc2c1c(N)c1n(c2=O)Cc2cc3ccccc3nc2-1 [TH1320] | 18 nM | 58 nM | 60 nM | 7.4 nM | 14 nM | 1.8919 | 4800 nM | 710 nM | 1100 nM | 130 nM | 1.15 | 1.98 h | 1620 ng·h/mL | 547 ng/mL | 950 nM | 43 nM | 229 nM | 170 nM | 3000 nM | 22 nM | IC50 ([21]; Homo sapiens): 776 nM; IC50 ([22]; Homo sapiens, DU-145): 50 nM; IC50 ([23]; Homo sapiens, LNCaP): 110 nM; IC50 ([24]; Homo sapiens, IGROV-1): 120 nM; IC50 [4, 34]: 91 nM; IC50 [5, 35]: 91 nM; TGI (%) (human colon cancer HT-29; 2 weeks, 30 mg/Kg): 44.3%; Max. BWL (%) (human colon cancer HT-29; 30 mg/kg): 3%; TGI (%) ([11]; 30 mg/Kg): 79.2%; Max. BWL (%) ([11]; 30 mg/kg): 3.8%; T/C ([15]; 20 mg/Kg): 204
